Measurements: ChEMBL document CHEMBL1201862, “PubChem BioAssay data set” (2004)
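Tested at 5 concentrations; 48 h exposure; 96-well plates; endpoints linearly interpolated, else capped at highest concentration. GI50 marks 50% less growth.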 Active and inactive are the calls of the source. No stated cut-off is given here; in the data, active = GI50 up to about 1.1 µM and inactive = higher.

How the values were obtained:
Assay in all cases: NCI-60 cell line screen, 48 h
[1] = system: SN12C
[2] = system: UACC-257
[3] = system: XF498
[4] = system: LOX IMVI
[5] = system: NCI-H23
[6] = system: RXF 393
[7] = system: CCRF-CEM
[8] = system: EKVX
[9] = system: MOLT-4
[10] = system: NCI-H226
[11] = system: CAKI-1
[12] = system: SF-539
[13] = system: TK-10
[14] = system: 786-0
[15] = system: LXFL 529
[16] = system: SNB-19
[17] = system: K562
[18] = system: HT-29
[19] = system: HCT-116
[20] = system: KM-20L2
[21] = system: SF-268
[22] = system: SK-OV-3
[23] = system: SR
[24] = system: UO-31
[25] = system: ACHN
[26] = system: HOP-18
[27] = system: UACC-62
[28] = system: RPMI-8226
[29] = system: U-251
[30] = system: OVCAR-8
[31] = system: HCC 2998
[32] = system: KM12
[33] = system: NCI-H460
[34] = system: SK-MEL-5
[35] = system: OVCAR-4
[36] = system: HOP-62
[37] = system: M14
[38] = system: SK-MEL-2
[39] = system: HL-60
[40] = system: DMS-114
[41] = system: IGROV-1
[42] = system: Malme-3M
[43] = system: OVCAR-5
[44] = system: DMS-273
[45] = system: HCT-15
[46] = system: COLO 205
[47] = system: M19-MEL
[48] = system: A549
[49] = system: SK-MEL-28
[50] = system: SW-620
[51] = system: DLD-1
[52] = system: SF-295
[53] = system: A498
[54] = system: NCI-H522
[55] = system: OVCAR-3
[56] = system: SNB-75
[57] = system: SNB-78
[58] = system: BT-549
[59] = system: DU-145
[60] = system: MDA-MB-231
[61] = system: PC-3
[62] = system: T47D
[63] = system: MDA-N
[64] = system: MDA-MB-435
[65] = system: HOP-92
[66] = system: MCF7
[67] = system: NCI/ADR-RES
[68] = system: Hs-578T

## O=C1c2ccccc2C(=O)c2sc(Nc3cccc(Cl)c3)nc21
[1]
  GI50: 1.51 µM (inactive)
[2]
  GI50: 1.52 µM (inactive)
[3]
  GI50: 1.73 µM (inactive)
[4]
  GI50: 1.27 µM (inactive)
[5]
  GI50: 1.49 µM (inactive)
[6]
  GI50: 1.45 µM (inactive)
[7]
  GI50: 1.36 µM (inactive)
[8]
  GI50: 2.38 µM (inactive)
[9]
  GI50: 0.492 µM (active)
[10]
  GI50: 3.96 µM (inactive)
[11]
  GI50: 2.04 µM (inactive)
[12]
  GI50: 1.93 µM (inactive)
[13]
  GI50: 2.88 µM (inactive)
[14]
  GI50: 1.56 µM (inactive)
[15]
  GI50: 1.48 µM (inactive)
[16]
  GI50: 2.07 µM (inactive)
[17]
  GI50: 1.57 µM (inactive)
[18]
  GI50: 3.34 µM (inactive)
[19]
  GI50: 1.82 µM (inactive)
[20]
  GI50: 7.45 µM (inactive)
[21]
  GI50: 2.01 µM (inactive)
[22]
  GI50: 8.11 µM (inactive)
[23]
  GI50: 2.34 µM (inactive)
[24]
  GI50: 2.3 µM (inactive)
[25]
  GI50: 1.61 µM (inactive)
[26]
  GI50: 1.63 µM (inactive)
[27]
  GI50: 1.73 µM (inactive)
[28]
  GI50: 0.966 µM (active)
[29]
  GI50: 1.31 µM (inactive)
[30]
  GI50: 1.6 µM (inactive)
[31]
  GI50: 2.75 µM (inactive)
[32]
  GI50: 2.03 µM (inactive)
[33]
  GI50: 2.07 µM (inactive)
[34]
  GI50: 1.56 µM (inactive)
[35]
  GI50: 1.45 µM (inactive)
[36]
  GI50: 1.82 µM (inactive)
[37]
  GI50: 1.82 µM (inactive)
[38]
  GI50: 1.79 µM (inactive)
[39]
  GI50: 0.172 µM (active)
[40]
  GI50: 1.36 µM (inactive)
[41]
  GI50: 2.07 µM (inactive)
[42]
  GI50: 1.52 µM (inactive)
[43]
  GI50: 2.22 µM (inactive)
[44]
  GI50: 1.87 µM (inactive)
[45]
  GI50: 1.88 µM
[46]
  GI50: 5.38 µM (inactive)
[47]
  GI50: 0.322 µM (active)
[48]
  GI50: 2.21 µM (inactive)
[49]
  GI50: 1.81 µM (inactive)
[50]
  GI50: 0.802 µM (active)
[51]
  GI50: 1.94 µM (inactive)
[52]
  GI50: 1.62 µM (inactive)
[53]
  GI50: 2.07 µM (inactive)
[54]
  GI50: 1.45 µM (inactive)
[55]
  GI50: 1.12 µM (active)
[56]
  GI50: 1.82 µM (inactive)

## CCN(CC)CCNc1ccc2ncn3c4ccc(O)cc4c(=O)c1c23
[57]
  GI50: 0.541 µM (active)
[1]
  GI50: 0.22 µM (active)
[2]
  GI50: 6.62 µM (inactive)
[3]
  GI50: 0.173 µM (active)
[4]
  GI50: 0.327 µM (active)
[5]
  GI50: 0.194 µM (active)
[6]
  GI50: 0.178 µM (active)
[7]
  GI50: 0.0719 µM (active)
[8]
  GI50: 7.28 µM (inactive)
[9]
  GI50: 0.0146 µM (active)
[10]
  GI50: 0.04 µM (active)
[11]
  GI50: 0.0649 µM (active)
[12]
  GI50: 0.458 µM (active)
[13]
  GI50: 3.2 µM (inactive)
[14]
  GI50: 0.459 µM (active)
[15]
  GI50: 1.26 µM (inactive)
[16]
  GI50: 1.01 µM (active)
[17]
  GI50: 1.04 µM (active)
[18]
  GI50: 0.679 µM (active)
[19]
  GI50: 0.212 µM (active)
[20]
  GI50: 1.23 µM (inactive)
[21]
  GI50: 0.721 µM (active)
[22]
  GI50: 0.785 µM (active)
[58]
  GI50: 12 µM (inactive)
[23]
  GI50: < 0.01 µM (active)
[24]
  GI50: 0.429 µM (active)
[59]
  GI50: 0.315 µM (active)
[60]
  GI50: 1.65 µM (inactive)
[25]
  GI50: 0.0499 µM (active)
[26]
  GI50: 5.92 µM (inactive)
[27]
  GI50: 1.25 µM (inactive)
[28]
  GI50: 0.267 µM (active)
[29]
  GI50: 0.193 µM (active)
[30]
  GI50: 0.561 µM (active)
[31]
  GI50: 2.51 µM (inactive)
[32]
  GI50: 1.21 µM (inactive)
[33]
  GI50: 0.0291 µM (active)
[34]
  GI50: 0.289 µM (active)
[61]
  GI50: 1.49 µM (inactive)
[35]
  GI50: 1.28 µM (inactive)
[36]
  GI50: 0.141 µM (active)
[37]
  GI50: 1.28 µM (inactive)
[38]
  GI50: 6.78 µM (inactive)
[39]
  GI50: 0.131 µM (active)
[62]
  GI50: 12.2 µM (inactive)
[63]
  GI50: 4.19 µM (inactive)
[41]
  GI50: 0.479 µM (active)
[42]
  GI50: 1.48 µM (inactive)
[64]
  GI50: 3.67 µM (inactive)
[43]
  GI50: 2.37 µM (inactive)
[44]
  GI50: 0.0731 µM (active)
[45]
  GI50: 0.214 µM
[46]
  GI50: 0.769 µM (active)
[65]
  GI50: 0.434 µM (active)
[66]
  GI50: 0.15 µM (active)
[47]
  GI50: 1.38 µM (inactive)
[48]
  GI50: 0.0248 µM (active)
[67]
  GI50: 2.81 µM (inactive)
[49]
  GI50: 7.76 µM (inactive)
[50]
  GI50: 0.216 µM (active)
[51]
  GI50: 0.544 µM (active)
[52]
  GI50: 0.216 µM (active)
[53]
  GI50: 1.12 µM (inactive)
[68]
  GI50: 3.11 µM (inactive)
[54]
  GI50: 0.458 µM (active)
[55]
  GI50: 3.55 µM (inactive)
[56]
  GI50: 0.652 µM (active)
